The source of these data is patent US20240059677A1, “SUBSTITUTED PYRIMIDINE DERIVATIVES AS NICOTINIC ACETYLCHOLINESTERASE RECEPTOR ALPHA 6 MODULATOR” (priority 2020, published 2024).

The first experiment deals with T1, human nAChRα6-α3 chimera, in addition to β2 and β3^V273S subunits (Homo sapiens, UniProt P32297+Q15825).
T1 construct: expressed in transfected cells
T1 sequence (Q05901 25-458 V273S): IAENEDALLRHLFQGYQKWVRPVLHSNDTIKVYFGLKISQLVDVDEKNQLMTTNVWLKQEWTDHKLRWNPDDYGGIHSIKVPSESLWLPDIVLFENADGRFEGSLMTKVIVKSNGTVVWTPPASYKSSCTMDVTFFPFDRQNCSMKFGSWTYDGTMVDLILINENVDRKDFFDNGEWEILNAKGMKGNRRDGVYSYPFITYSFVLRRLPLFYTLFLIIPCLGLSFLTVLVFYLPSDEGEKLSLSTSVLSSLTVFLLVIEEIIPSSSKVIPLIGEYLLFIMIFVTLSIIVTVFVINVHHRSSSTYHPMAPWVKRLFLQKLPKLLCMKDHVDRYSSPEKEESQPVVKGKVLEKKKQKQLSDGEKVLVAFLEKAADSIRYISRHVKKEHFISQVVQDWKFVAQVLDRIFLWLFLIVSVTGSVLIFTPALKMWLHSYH
T1 sequence (P17787 26-502, stated change not applied, further chain): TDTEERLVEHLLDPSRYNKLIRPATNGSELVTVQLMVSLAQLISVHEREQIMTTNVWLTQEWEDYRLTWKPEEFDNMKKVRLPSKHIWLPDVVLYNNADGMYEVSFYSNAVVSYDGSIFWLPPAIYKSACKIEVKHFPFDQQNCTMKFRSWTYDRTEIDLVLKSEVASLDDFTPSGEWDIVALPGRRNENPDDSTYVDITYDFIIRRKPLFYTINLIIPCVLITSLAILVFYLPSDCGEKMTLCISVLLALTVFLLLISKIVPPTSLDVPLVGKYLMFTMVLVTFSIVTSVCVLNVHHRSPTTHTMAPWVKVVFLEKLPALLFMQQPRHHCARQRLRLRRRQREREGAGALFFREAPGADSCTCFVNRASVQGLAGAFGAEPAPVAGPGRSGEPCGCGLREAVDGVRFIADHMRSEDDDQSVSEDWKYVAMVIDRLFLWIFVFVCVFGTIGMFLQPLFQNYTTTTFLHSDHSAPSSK
T1 sequence (Q15825+P32297 fused with the stated changes): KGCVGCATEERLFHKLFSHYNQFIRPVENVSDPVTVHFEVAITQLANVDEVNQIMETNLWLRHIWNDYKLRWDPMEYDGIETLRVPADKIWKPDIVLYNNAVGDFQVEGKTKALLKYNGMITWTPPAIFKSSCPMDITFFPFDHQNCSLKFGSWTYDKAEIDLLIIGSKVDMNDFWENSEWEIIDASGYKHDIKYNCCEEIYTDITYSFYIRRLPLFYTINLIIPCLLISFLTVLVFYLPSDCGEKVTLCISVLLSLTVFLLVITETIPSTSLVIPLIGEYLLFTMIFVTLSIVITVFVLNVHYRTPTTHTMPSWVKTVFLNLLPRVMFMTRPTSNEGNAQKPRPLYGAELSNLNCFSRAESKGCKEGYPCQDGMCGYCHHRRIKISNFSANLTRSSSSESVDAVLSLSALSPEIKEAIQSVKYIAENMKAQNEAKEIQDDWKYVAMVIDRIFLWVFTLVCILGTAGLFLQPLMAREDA
Briefly: fluorescence-based calcium assay: inhibition of nicotine stimulated nAChRα6 activity (FLIPR). Conditions: HEK cell line stably expressing the receptor; 10 min pre-incubation, nicotine EC80; 10-point curve, duplicate wells; read-out: IC50. An outline of the steps: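 HEK cells stably expressing the human α6-α3 chimera with β2 and β3^V273S were loaded with calcium dye at 30° C. Compounds were pre-incubated for 10 min before nicotine at EC80, and the fluorescence change was read on a FLIPR. Ten-point half-log concentration-response, duplicate wells.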
A word on the IC50: it is the concentration at which inhibition is half-maximal. `CN1CCCC1CCNc1ncc(-c2ccc(F)cc2)cn1` (stereo not shown) [Example 3, 5-(4-fluorophenyl)-N-(2-(1-methylpyrrolidin-2-yl)ethyl)pyrimidin-2-amine]: the IC50 came to 0.331 µM.
Consider `CN1CCCC(CNc2ncc(-c3ccc(F)cc3)cn2)C1` (stereo not shown) [Example 4, 5-(4-fluorophenyl)-N-((1-methylpiperidin-3-yl)methyl)pyrimidin-2-amine], for which the IC50 was 0.211 µM.
Still for that read-out and setting: the value for `CN1CCCC(Nc2ncc(-c3ccc(F)cc3)cn2)C1` (stereo not shown) [Example 5, 5-(4-fluorophenyl)-N-(1-methylpiperidin-3-yl)pyrimidin-2-amine] was 0.635 µM; that for `CC(C)N1CCCC(Nc2ncc(-c3ccc(F)cc3)cn2)C1` (stereo not shown) [Example 6, 5-(4-fluorophenyl)-N-(1-isopropylpiperidin-3-yl)pyrimidin-2-amine] was 0.123 µM; that for `CN(C)C1CCCC(Nc2ncc(-c3ccc(F)cc3)cn2)C1` (stereo not shown) [Example 7, N^1-(5-(4-fluorophenyl)pyrimidin-2-yl)-N^3,N^3-dimethylcyclohexane-1,3-diamine] was 0.59 µM.
Regarding `CN1CCCCC1CNc1ncc(-c2ccc(F)cc2)cn1` (stereo not shown) [Example 8, 5-(4-fluorophenyl)-N-((1-methylpiperidin-2-yl)methyl)pyrimidin-2-amine], the 50% inhibitory concentration (IC50) was found to be 0.286 µM.
In the case of `Cc1nc(NC2CCCN(C(C)C)C2)ncc1-c1ccc(F)cc1` (stereo not shown) [Example 9, 5-(4-fluorophenyl)-N-(1-isopropylpiperidin-3-yl)-4-methyl-pyrimidin-2-amine], the IC50 came to 0.264 µM.
For the compound `Cc1nc(NCC2(N(C)C)CCCC2)ncc1-c1ccc(F)cc1F` [Example 11, 5-(2,4-difluorophenyl)-N-((1-(dimethylamino)cyclopentyl)methyl)-4-methyl-pyrimidin-2-amine], the IC50 amounted to 0.246 µM.
On the same count and under the same terms, the value for `Cc1nc(NC2CC3CCC(C2)N3C)ncc1-c1ccc(F)cc1F` (stereo not shown) [Example 12, N-(5-(2,4-difluorophenyl)-4-methyl-pyrimidin-2-yl)-8-methyl-8-azabicyclo[3.2.1]octan-3-amine] was 0.108 µM; that for `Cc1nc(NCC2CCN(C)C2)ncc1-c1ccc(F)cc1F` (stereo not shown) [Example 13, 5-(2,4-difluorophenyl)-4-methyl-N-((1-methylpyrrolidin-3-yl)methyl) pyrimidin-2-amine] was 0.05 µM.
For `Cc1nc(NCCC2CCCN2C)ncc1-c1ccc(F)cc1F` (stereo not shown) [Example 14, 5-(2,4-difluorophenyl)-4-methyl-N-(2-(1-methylpyrrolidin-2-yl)ethyl) pyrimidin-2-amine], the IC50 stood at 0.042 µM.
Turning to `Cc1nc(NCC2CCCN2C)nnc1-c1ccc(F)cc1F` (stereo not shown) [Example 15, 6-(2,4-difluorophenyl)-5-methyl-N-((1-methylpyrrolidin-2-yl)methyl)-1,2,4-triazin-3-amine], the IC50 worked out at 1.94 µM.
Regarding `COc1ccc(-c2cnc(NCCC3CCCN3C)nc2C)c(F)c1` (stereo not shown) [Example 16, 5-(2-fluoro-4-methoxyphenyl)-4-methyl-N-(2-(1-methylpyrrolidin-2-yl)ethyl)pyrimidin-2-amine], the IC50 amounted to 0.075 µM.
With `COc1ccc(-c2cnc(NCC3CCCCN3C)nc2C)c(F)c1` (stereo not shown) [Example 17, 5-(2-fluoro-4-methoxyphenyl)-4-methyl-N-((1-methylpiperidin-2-yl)methyl) pyrimidin-2-amine], the IC50 was determined as 0.02 µM.
With `CN1CCCC1CNc1ncc(-c2ccc(F)cc2F)c(C#N)n1` (stereo not shown) [Example 19, 5-(2,4-difluorophenyl)-2-(((1-methylpyrrolidin-2-yl)methyl)amino) pyrimidine-4-carbonitrile], the IC50 came out at 0.216 µM.
For `Cc1nc(NCC2CCCCN2C)nnc1-c1ccc(F)cc1F` (stereo not shown) [Example 20, 6-(2,4-difluorophenyl)-5-methyl-N-((1-methylpiperidin-2-yl)methyl)-1,2,4-triazin-3-amine], the IC50 is 0.49 µM.
Take `Cc1nc(NCCC2CCCN2C)nnc1-c1ccc(F)cc1F` (stereo not shown) [Example 21, 6-(2,4-difluorophenyl)-5-methyl-N-(2-(1-methylpyrrolidin-2-yl)ethyl)-1,2,4-triazin-3-amine]: the IC50 turned out to be 0.599 µM.
Consider `Cc1nc(NC2CCN(C(C)C)C2)ncc1-c1ccc(F)cc1F` (stereo not shown) [Example 22, 5-(2,4-difluorophenyl)-N-(1-isopropylpyrrolidin-3-yl)-4-methyl-pyrimidin-2-amine], for which the IC50 is 0.05 µM.
On to `COc1ccc(-c2nnc(NCCC3CCCN3C)nc2C)c(F)c1` (stereo not shown) [Example 23, 6-(2-fluoro-4-methoxyphenyl)-5-methyl-N-(2-(1-methylpyrrolidin-2-yl)ethyl)-1,2,4-triazin-3-amine], for which the IC50 stood at 0.233 µM.
In the case of `Cc1nc(NC[C@@H]2CCCN2C)ncc1-c1ccc(F)cc1F` [Example 24a, (S)-5-(2,4-difluorophenyl)-4-methyl-N-((1-methylpyrrolidin-2-yl)methyl) pyrimidin-2-amine], the IC50 was 0.062 µM.
On the same count and under the same terms, in the case of `COc1ccc(-c2cnc(NCC3CCCCN3C)nc2C#N)c(F)c1` (stereo not shown) [Example 25, 5-(2-fluoro-4-methoxyphenyl)-2-(((1-methylpiperidin-2-yl)methyl)amino) pyrimidine-4-carbonitrile] it was 0.034 µM; in that of `COc1ccc(-c2nnc(NCC3CCCCN3C)nc2C)c(F)c1` (stereo not shown) [Example 26, 6-(2-fluoro-4-methoxyphenyl)-5-methyl-N-((1-methylpiperidin-2-yl)methyl)-1,2,4-triazin-3-amine], 0.156 µM.
On to `COc1ccc(-c2cnc(NCCC3CCCN3C)nc2C#N)c(F)c1` (stereo not shown) [Example 27, 5-(2-fluoro-4-methoxyphenyl)-2-((2-(1-methylpyrrolidin-2-yl)ethyl)amino) pyrimidine-4-carbonitrile], for which the IC50 was 0.056 µM.
Consider `Cc1nc(NC2CCN(C)C2)ncc1-c1ccc(F)cc1F` (stereo not shown) [Example 29, 5-(2,4-difluorophenyl)-4-methyl-N-(1-methylpyrrolidin-3-yl)pyrimidin-2-amine], for which the IC50 came to 0.095 µM.
As for `COc1ccc(-c2cnc(NCC3CCCN(C)C3)nc2C)c(F)c1` (stereo not shown) [Example 30, 5-(2-fluoro-4-methoxyphenyl)-4-methyl-N-((1-methylpiperidin-3-yl)methyl) pyrimidin-2-amine], the IC50 worked out at 0.082 µM.
For `COc1ccc(-c2cnc(NCC3CCN(C)C3)nc2C#N)c(F)c1` (stereo not shown) [Example 31, 5-(2-fluoro-4-methoxyphenyl)-2-(((1-methylpyrrolidin-3-yl)methyl)amino) pyrimidine-4-carbonitrile], the IC50 worked out at 0.082 µM.
Same read-out and setting: the value for `COc1ccc(-c2cnc(NCC3COCCN3C)nc2C)c(F)c1` (stereo not shown) [Example 32, 5-(2-fluoro-4-methoxyphenyl)-4-methyl-N-((4-methylmorpholin-3-yl)methyl)pyrimidin-2-amine] was 0.099 µM; that for `COc1ccc(F)c(-c2cnc(NCC3CCCCN3C)nc2C)c1` (stereo not shown) [Example 33, 5-(2-fluoro-5-methoxyphenyl)-4-methyl-N-((1-methylpiperidin-2-yl)methyl) pyrimidin-2-amine] was 0.045 µM; that for `COc1ccc(F)c(-c2cnc(NCC3CCCN(C)C3)nc2C)c1` (stereo not shown) [Example 34, 5-(2-fluoro-5-methoxyphenyl)-4-methyl-N-((1-methylpiperidin-3-yl)methyl) pyrimidin-2-amine] was 0.13 µM.
With `COc1ccc(-c2cnc(NCC3CN(C)CCO3)nc2C)c(F)c1` (stereo not shown) [Example 36, 5-(2-fluoro-4-methoxyphenyl)-4-methyl-N-((4-methylmorpholin-2-yl)methyl)pyrimidin-2-amine], the IC50 is 0.14 µM.
As to `COc1ccc(-c2cnc(NCC3CCN(C)C3)nc2C2CC2)c(F)c1` (stereo not shown) [Example 37, 4-cyclopropyl-5-(2-fluoro-4-methoxyphenyl)-N-((1-methylpyrrolidin-3-yl)methyl)pyrimidin-2-amine], the half-maximal inhibitory concentration (IC50) came out at 0.103 µM.
As for `COc1ccc(-c2cnc(NC3CCN(C)CC3)nc2C)c(F)c1` [Example 40, 5-(2-fluoro-4-methoxyphenyl)-4-methyl-N-(1-methylpiperidin-4-yl) pyrimidin-2-amine], the IC50 amounted to 0.068 µM.
On to `COc1ccc(-c2cnc(NC3CCN(C(C)C)CC3)nc2C)c(F)c1` [Example 41, 5-(2-fluoro-4-methoxyphenyl)-N-(1-isopropylpiperidin-4-yl)-4-methyl-pyrimidin-2-amine], for which the IC50 is 0.081 µM.
With `Cc1nc(NCc2cccnc2)ncc1-c1ccc(F)cc1F` [Example 42, 5-(2,4-difluorophenyl)-4-methyl-N-(pyridin-3-ylmethyl)pyrimidin-2-amine], the IC50 came to 1.2 µM.
Regarding `COc1ccc(-c2cnc(NC3CCC(N(C)C)C3)nc2C(F)(F)F)c(F)c1` (stereo not shown) [Example 43, N^1-(5-(2-fluoro-4-methoxyphenyl)-4-(trifluoromethyl)pyrimidin-2-yl)-N^3,N^3-dimethylcyclopentane-1,3-diamine], the IC50 was 0.178 µM.
On to `COc1ccc(-c2cnc(NC3CCOCC3)nc2C)c(F)c1` [Example 45, 5-(2-fluoro-4-methoxyphenyl)-4-methyl-N-(tetrahydro-2H-pyran-4-yl) pyrimidin-2-amine], for which the half-inhibitory concentration (IC50) turned out to be 1.31 µM.
Consider `COc1ccc(-c2cnc(NC3CCCOC3)nc2C)c(F)c1` (stereo not shown) [Example 46, 5-(2-fluoro-4-methoxyphenyl)-4-methyl-N-(tetrahydro-2H-pyran-3-yl) pyrimidin-2-amine], for which the IC50 worked out at 2.18 µM.
Take `COc1ccc(-c2cnc(NCC3CCCO3)nc2C)c(Cl)c1` (stereo not shown) [Example 47, 5-(2-chloro-4-methoxyphenyl)-4-methyl-N-((tetrahydrofuran-2-yl)methyl) pyrimidin-2-amine]: the IC50 worked out at 1.25 µM.

Still in this experiment, the particulars now being: IC50 (μM), HEK cell line stably expressing the receptor; 10 min pre-incubation, nicotine EC80; 10-point curve, duplicate wells.
For the compound `CCN1CCCCC1CNc1ncc(-c2ccc(F)cc2F)c(C)n1` (stereo not shown) [Example 10, 5-(2,4-difluorophenyl)-N-((1-ethylpiperidin-2-yl)methyl)-4-methyl-pyrimidin-2-amine], the IC50 was determined as 0.201 µM.
Regarding `COc1ccc(-c2cnc(NCC3CCCCN3C)nc2C)c(Cl)c1` (stereo not shown) [Example 35, 5-(2-chloro-4-methoxyphenyl)-4-methyl-N-((1-methylpiperidin-2-yl)methyl) pyrimidin-2-amine], the IC50 turned out to be 0.029 µM.
